Test results from patent US20090000631A1, “Smoking articles and method for incorporating salts of lanthanide metals for reducing TPM cytotoxicity and targeted constituents in tobacco smoke” (Philip Morris USA Inc., priority 2007, published 2009).

How the values were obtained:
[1] = Relative phenolic and PAH contents of mainstream TPM by GC/MS (FTC smoking, 3rd and 4th puffs); conditions: change of relative content in mainstream TPM, tobacco treated with acetate salt alone
Description: (§1) Under FTC conditions, the 3rd and 4th puffs of the mainstream TPM are collected. The relative phenolic and PAH contents are obtained by GC/MS methods. The TPM cytotoxicity data is obtained using the Neutral Red Uptake, while mutagenicity data is obtained using Ames assays.
(§2) Under FTC conditions, the 3rd and 4th puffs of the mainstream TPM are collected. The relative phenolic and PAH contents are obtained by GC/MS methods. The TPM cytotoxicity and mutagenicity data are obtained using Neutral Red Uptake and Ames assays, respectively.

[2] = test system: TPM cytotoxicity; assay: TPM cytotoxicity, Neutral Red Uptake; assay type: cell-based; conditions: change of TPM cytotoxicity; tobacco treated with acetate salt alone; FTC, 3rd and 4th puffs
Description: as §1, §2

[3] = test system: TPM mutagenicity; assay: TPM mutagenicity, Ames assays; assay type: cell-based; conditions: for Mutagenicity: change of TPM mutagenicity, tobacco treated with acetate salt alone, FTC, 3rd and 4th puffs; for mutagenicity of the mainstream smoke (in words): mainstream smoke TPM of treated tobacco
Description: as §1, §2

| SMILES | HQ [1] [%] | Naphthalene [1] [%] | catechol [1] [%] | resorcinol [1] | Cytotoxicity [2] | Mutagenicity [3] | mutagenicity of the mainstream smoke (in words) [3] |
| --- | --- | --- | --- | --- | --- | --- | --- |
| CC(=O)[O-].CC(=O)[O-].CC(=O)[O-].O.[Ce+3] [7.4% Ce(OAc)3•H2O, Ce(OAc)3•H2O] | −23 | −47 | −54 | — (No significant change (absolute change <20%)) | — (No significant change (absolute change <20%)) | — (No significant change (absolute change <20%)) | – |
| CC(=O)[O-].CC(=O)[O-].CC(=O)[O-].O.[Eu+3] [8% Eu(OAc)3•H2O, Eu(OAc)3•H2O] | −39 | −54 | −48 | −33% | — (No significant change (absolute change <20%)) | −21% | reduced |
| CC(=O)[O-].CC(=O)[O-].CC(=O)[O-].[La+3] [8% La(OAc)3•xH2O (x ≦ 2), La(OAc)3•xH2O] | −60 | −51 | −41 | −56% | −25% | −46% | reduced |
| CC(=O)[O-].CC(=O)[O-].CC(=O)[O-].O.[Lu+3] [8.2% Lu(OAc)3•H2O, Lu(OAc)3•H2O] | −49 | −33 | −33 | −39% | — (No significant change (absolute change <20%)) | — (No significant change (absolute change <20%)) | reduced |
